Experiment [1] concerns the target T1, ERK5 (Homo sapiens, UniProt Q13164).
T1 construct: MEF2-luciferase reporter
Kind of experiment: Inhibition of Cellular ERK5 Activity (cell-based assay, MEF2 luciferase reporter in SN12C cells). Particulars: renal cancer cell line SN12C, doxycycline-induced MEKSDD, mean where repeated. The method, then: (§1) Two assays were performed to assess the ERK5 inhibitory activity of compounds of the Examples, a cell-based assay and a cell-free biochemical assay. Where repeat measurements were taken, the value reported is a mean average.
The renal cancer cell line SN12C was transduced by a lentivirus pGreenFire1 MEF2 EF1 Neo (ref TR030VA-N) from SBI using standard infection protocol. pGreenFire1 MEF2 EF1 Neo allows the expression of luciferase gene under the control of minimal promoter with MEF2 transcriptional response elements. Cells harboring the reporter construct were selected by geneticin treatment. The selected cells were then transposed by a piggyback based plasmid pCM4007 allowing the expression of constitutively activated MEKSDD under control of TREG3 promoter, a doxycycline regulated promoter. Transposed cells were selected by puromycin treatment. Upon doxycycline treatment (1p g/ml) MEKSDD was expressed. MEKSDD activates ERK5 that phosphorylates MEF2C protein. Activated MEF2C protein can bind to its transcriptional response elements. Then the luciferase is expressed. In a 96-well plate (96F nuncleon refl37101 thermofisher), 50,000 cells were inoculated in 142.5 μl of RPMI medium containing 10% fetal calf serum, 1% glutamine, and 1 μg/ml doxycycline. After 24 hours, compounds were added in 7.5 μl culture medium (with 2% DMSO to give a final concentration of 0.1%) in order to obtain the desired concentration (0.3-1000 nM). The luciferase activity was measured using the Kit Bright Glo Luminescent Cell Assay Cat E2610 (Promega) according to the manufacturer's protocol. Luminescence was determined using 0.2 second reading/well using a Tecan SPARK. IC50 values were calculated using XLFIT5 for Microsoft Excel using method 205. The IC50 values represent the concentration of compound which inhibits the measurable luminescence signal by 50% as compared to DMSO-treated control cells.

Experiment [2] concerns the target T2, ERK5 (activated catalytic domain) (Homo sapiens, UniProt Q13164).
T2 construct: purchased CarnaBiosciences 04-146
As to the kind of experiment: Cell-Free Assay of ERK5 Inhibition (Time-Resolved FRET, 4EBP1 peptide phosphorylation). The class given is biochemical. As to conditions: ERK5 catalytic domain 4 nM, 1 mM ATP, 1 μM biotinylated 4EBP1 peptide, 30 min at 37° C.; mean where repeated; read-out: Cell-free assay (IC50 in nM). The method, then:
as §1
An assay was performed to measure the capacity of each compound to inhibit ERK5 enzymatic activity. Compound potency was evaluated by Time-Resolved Forster Resonance Energy Transfer (FRET system). The activated catalytic domain of protein ERK5 (CarnaBiosciences #04-146) was mixed at 4 nM with varying concentrations of compound and incubated for 30 minutes at room temperature. A mixture of 1 mM ATP and 1 μM biotinylated synthetic peptide was added (Biosyntan GmbH). This synthetic peptide represents amino acids 30-52 of Eukaryotic translation initiation factor 4E-binding protein 1 (see, e.g., the sequence under accession No. NP_004086.1) biotinylated at the N-terminus. After 30 minutes at 37° C., the peptide phosphorylation by ERK5 was measured by addition of FRET reagents consisting of 12.5 μg/ml Streptavidin-XL665, 1 nM Anti-P-4EBP1 antibody and 300 ng/ml Anti-rabbit-K antibody. Following 90 minutes at room temperature fluorescent signals were read on the Pherastar FSX multimod detector from BMG Labtech (Exc° 340 nm, Em1 620 nm, Em2 665 nm). The IC50 values represent the concentration of compound which inhibits the measurable fluorescence signal by 50% as compared to the DMSO only control.

T1 sequence (Q13164 whole entry): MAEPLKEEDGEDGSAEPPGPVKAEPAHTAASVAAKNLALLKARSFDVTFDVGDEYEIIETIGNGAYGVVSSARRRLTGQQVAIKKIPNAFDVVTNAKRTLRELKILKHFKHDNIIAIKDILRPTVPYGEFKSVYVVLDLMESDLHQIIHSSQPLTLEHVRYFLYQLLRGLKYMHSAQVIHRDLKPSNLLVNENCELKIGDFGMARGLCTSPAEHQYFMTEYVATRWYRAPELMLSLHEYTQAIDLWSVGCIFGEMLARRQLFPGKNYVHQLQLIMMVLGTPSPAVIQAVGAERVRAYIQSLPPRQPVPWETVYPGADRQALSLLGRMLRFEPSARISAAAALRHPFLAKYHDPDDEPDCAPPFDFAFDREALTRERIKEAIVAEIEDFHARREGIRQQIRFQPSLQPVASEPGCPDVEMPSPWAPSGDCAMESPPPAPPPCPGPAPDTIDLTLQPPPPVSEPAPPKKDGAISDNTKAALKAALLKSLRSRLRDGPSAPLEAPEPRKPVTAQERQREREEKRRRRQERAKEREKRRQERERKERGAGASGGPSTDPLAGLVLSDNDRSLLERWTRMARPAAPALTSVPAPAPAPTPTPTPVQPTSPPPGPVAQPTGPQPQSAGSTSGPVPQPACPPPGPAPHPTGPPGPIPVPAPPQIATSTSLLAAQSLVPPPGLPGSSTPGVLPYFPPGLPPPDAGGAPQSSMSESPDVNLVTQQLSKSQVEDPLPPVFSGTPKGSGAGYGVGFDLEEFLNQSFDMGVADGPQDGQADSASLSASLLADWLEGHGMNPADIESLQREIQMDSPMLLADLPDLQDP
T2 sequence (Q13164 55-347 limits assumed): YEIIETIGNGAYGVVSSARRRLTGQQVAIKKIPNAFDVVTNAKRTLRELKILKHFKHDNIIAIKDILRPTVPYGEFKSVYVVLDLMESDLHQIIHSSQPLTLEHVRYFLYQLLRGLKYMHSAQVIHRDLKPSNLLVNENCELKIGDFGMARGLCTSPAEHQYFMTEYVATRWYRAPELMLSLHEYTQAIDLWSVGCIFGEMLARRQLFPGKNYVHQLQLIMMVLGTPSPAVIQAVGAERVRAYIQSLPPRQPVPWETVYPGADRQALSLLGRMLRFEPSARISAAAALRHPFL

The IC50 is the point on the concentration scale where inhibition reaches its midpoint. For `CN1CCC(Oc2cnc3[nH]c(=O)n(C4CCN(C(=O)c5ccc(OC(F)(F)F)cc5N)CC4)c3c2)C1` (racemic) [Example 6, (rac)-1-[1-[2-amino-4-(trifluoromethoxy)benzoyl]-4-piperidyl]-6-(1-methylpyrrolidin-3-yl)oxy-3H-imidazo[4,5-b]pyridin-2-one], the concentration for half-maximal inhibition (IC50) in experiment [1] stood at 150 nM; in experiment [2] it was 77 nM.

Take `CN1CCC(Oc2cnc3[nH]c(=O)n(C4CCN(C(=O)c5ccc(OC(F)(F)F)cc5)CC4)c3c2)C1` (racemic) [Example 9, (rac)-6-(1-methylpyrrolidin-3-yl)oxy-1-[1-[4-(trifluoromethoxy)benzoyl]-4-piperidyl]-3H-imidazo[4,5-b]pyridin-2-one]: the IC50 in experiment [1] stood at 413 nM; in experiment [2], 287 nM.

As to `O=C(c1ccc(OC(F)(F)F)cc1)N1CCC(n2c(=O)[nH]c3ncc(C4CCOC4)cc32)CC1` (racemic) [Example 15, (rac)-6-Tetrahydrofuran-3-yl-1-[1-[4-(trifluoromethoxy)benzoyl]-4-piperidyl]-3H-imidazo[4,5-b]pyridin-2-one], the half-inhibitory concentration (IC50) was 282 nM in experiment [1] and 203 nM in experiment [2].

As to `Nc1cc(OC(F)(F)F)ccc1C(=O)N1CCC(n2c(=O)[nH]c3ncc(C4CCOC4)cc32)CC1` (racemic) [Example 16, (rac)-1-[1-[2-Amino-4-(trifluoromethoxy)benzoyl]-4-piperidyl]-6-tetrahydrofuran-3-yl-3H-imidazo[4,5-b]pyridin-2-one], the IC50 in experiment [1] is 138 nM; in experiment [2], 85 nM. For `Nc1cc(OC(F)(F)F)ccc1C(=O)N1CCC(n2c(=O)[nH]c3ncc(C4CCNC(=O)C4)cc32)CC1` (racemic) [Example 22, (rac)-1-[1-[2-amino-4-(trifluoromethoxy)benzoyl]-4-piperidyl]-6-(2-oxo-4-piperidyl)-3H-imidazo[4,5-b]pyridin-2-one] the same measures were 140 nM and 684 nM. For `Nc1cc(OC(F)(F)F)ccc1C(=O)N1CCC(n2c(=O)[nH]c3ncc(CC4CCOC4)cc32)CC1` (racemic) [Example 23, (rac)-1-[1-[2-amino-4-(trifluoromethoxy)benzoyl]-4-piperidyl]-6-(tetrahydrofuran-3-ylmethyl)-3H-imidazo[4,5-b]pyridin-2-one] the same measures were 184 nM and 86 nM. For `Nc1cc(OC(F)(F)F)ccc1C(=O)N1CCC(n2c(=O)[nH]c3ncc(C4CCCO4)cc32)CC1` (racemic) [Example 25, (rac)-1-[1-[2-amino-4-(trifluoromethoxy)benzoyl]-4-piperidyl]-6-tetrahydrofuran-2-yl-3H-imidazo[4,5-b]pyridin-2-one] the same measures were 57 nM and 377 nM.

With `Nc1cc(OC(F)(F)F)ccc1C(=O)N1CCC(n2c(=O)[nH]c3ncc(C45CCNCC4C5)cc32)CC1` (racemic) [Example 28, (rac)-1-[1-[2-amino-4-(trifluoromethoxy)benzoyl]-4-piperidyl]-6-(3-azabicyclo[4.1.0]heptan-6-yl)-3H-imidazo[4,5-b]pyridin-2-one, 2,2,2-trifluoroacetic acid], the IC50 in experiment [2] is 533 nM. Take `Nc1cc(OC(F)(F)F)ccc1C(=O)N1CCC(n2c(=O)[nH]c3ncc(C45CCOCC4C5)cc32)CC1` (racemic) [Example 31, (rac)-1-[1-[2-amino-4-(trifluoromethoxy)benzoyl]-4-piperidyl]-6-(3-oxabicyclo[4.1.0]heptan-6-yl)-3H-imidazo[4,5-b]pyridin-2-one]: the half-inhibitory concentration (IC50) in experiment [1] was determined as 170 nM; in experiment [2], 288 nM. In the case of `Nc1cc(OC(F)(F)F)ccc1C(=O)N1CCC(n2c(=O)[nH]c3ncc(C45CCCCC4C5)cc32)CC1` (racemic) [Example 34, (rac)-1-[1-[2-amino-4-(trifluoromethoxy)benzoyl]-4-piperidyl]-6-norcaran-1-yl-3H-imidazo[4,5-b]pyridin-2-one], the 50% inhibitory concentration (IC50) stood at 217 nM in experiment [1] and 974 nM in experiment [2]. For `Nc1cc(OC(F)(F)F)ccc1C(=O)N1CCC(n2c(=O)[nH]c3ncc(C4CCCCO4)cc32)CC1` (racemic) [Example 38, (rac)-1-[1-[2-amino-4-(trifluoromethoxy)benzoyl]-4-piperidyl]-6-tetrahydropyran-2-yl-3H-imidazo[4,5-b]pyridin-2-one] the same measures were 541 nM and 1470 nM. The corresponding values for `Nc1cc(OC(F)(F)F)ccc1C(=O)N1CCC(n2c(=O)[nH]c3ncc(C4CCCOC4)cc32)CC1` (racemic) [Example 40, (rac)-1-[1-[2-amino-4-(trifluoromethoxy)benzoyl]-4-piperidyl]-6-tetrahydropyran-3-yl-3H-imidazo[4,5-b]pyridin-2-one] are 168 nM and 291 nM. For `Nc1cc(S(F)(F)(F)(F)F)ccc1C(=O)N1CCC(n2c(=O)[nH]c3ncc(C4CCOCC4)cc32)C1` (racemic) [Example 49, (rac)-1-[1-[2-amino-4-(pentafluoro-λ^6-sulfanyl)benzoyl]pyrrolidin-3-yl]-6-tetrahydropyran-4-yl-3H-imidazo[4,5-b]pyridin-2-one] the same measures were 278 nM and 587 nM. On to `O=C(c1ccc(OC(F)(F)F)cc1)N1CCC(n2c(=O)[nH]c3ncc([C@@H]4CCC[C@@H](O)CC4)cc32)CC1` (racemic) [Example 61, (rac)-trans-6-(4-hydroxycycloheptyl)-1-[1-[4-(trifluoromethoxy)benzoyl]-4-piperidyl]-3H-imidazo[4,5-b]pyridin-2-one], for which, in experiment [1], the half-inhibitory concentration (IC50) stood at 202 nM.

`O=C(c1ccc(OC(F)(F)F)cc1)N1CCC(n2c(=O)[nH]c3ncc([C@H]4CCC[C@@H](O)CC4)cc32)CC1` (racemic) [Example 62, (rac)-cis-6-(4-hydroxycycloheptyl)-1-[1-[4-(trifluoromethoxy)benzoyl]-4-piperidyl]-3H-imidazo[4,5-b]pyridin-2-one] yielded a 50% inhibitory concentration (IC50) in experiment [1] of 257 nM. Same read-out and setting: then `O=C1CCCC(c2cnc3[nH]c(=O)n(C4CCN(C(=O)c5ccc(OC(F)(F)F)cc5)CC4)c3c2)CC1` (racemic) [Example 63, (rac)-6-(4-oxocycloheptyl)-1-[1-[4-(trifluoromethoxy)benzoyl]-4-piperidyl]-3H-imidazo[4,5-b]pyridine-2-one], with 254 nM. Still for that read-out and setting: in the case of `O=C(c1ccc(OC(F)(F)F)cc1)N1CCC(n2c(=O)[nH]c3ncc([C@@H]4CCCC[C@@H](O)C4)cc32)CC1` (racemic) [Example 66, (rac)-trans-6-(3-hydroxycycloheptyl)-1-[1-[4-(trifluoromethoxy)benzoyl]-4-piperidyl]-3H-imidazo[4,5-b]pyridin-2-one] it was 547 nM; in that of `O=C(c1ccc(OC(F)(F)F)cc1)N1CCC(n2c(=O)[nH]c3ncc([C@H]4CCCC[C@@H](O)C4)cc32)CC1` (racemic) [Example 67, (rac)-cis-6-(3-hydroxycycloheptyl)-1-[1-[4-(trifluoromethoxy)benzoyl]-4-piperidyl]-3H-imidazo[4,5-b]pyridin-2-one], 358 nM; in that of `O=C(c1ccc(OC(F)(F)F)cc1)N1CCC(n2c(=O)[nH]c3ncc(C4CCCC(=NO)CC4)cc32)CC1` (single isomer, unassigned; isomer 1) [Example 64, (rac)-6-[(4E/Z)-4-hydroxyiminocycloheptyl]-1-[1-[4-(trifluoromethoxy)benzoyl]-4-piperidyl]-3H-imidazo[4,5-b]pyridin-2-one, Isomer 1], 358 nM.

In experiment [1], `O=C(c1ccc(OC(F)(F)F)cc1)N1CCC(n2c(=O)[nH]c3ncc(C4CCCC(=NO)CC4)cc32)CC1` (single isomer, unassigned; isomer 2) [Example 65, (rac)-6-[(4E/Z)-4-hydroxyiminocycloheptyl]-1-[1-[4-(trifluoromethoxy)benzoyl]-4-piperidyl]-3H-imidazo[4,5-b]pyridin-2-one, Isomer 2] gave a half-inhibitory concentration (IC50) of 575 nM.
